Measured values taken from paper PMC3381515 (Immunity, 2011).

System: TCR and CD8 on F5 T cells
Experiment: Micropipette adhesion frequency assay, F5 T cells vs pMHC-coated RBCs
Type: binding, mouse
Settings: 32 NP68:H-2D^b/μm^2, BAPTA-AM 50 μM, PD98059 50 μM

## CC(=O)OCOC(=O)CN(CC(=O)OCOC(C)=O)c1ccccc1OCCOc1ccccc1N(CC(=O)OCOC(C)=O)CC(=O)OCOC(C)=O [BAPTA-AM]
  effect on two-stage kinetics / upregulated adhesion: two-stage kinetics were unaffected
